One may read the pEC50 as the EC50 on a negative log10 scale, so that one unit is a factor of ten.

The source of these data is patent US8822451B2, “Modulators of ATP-binding cassette transporters” (Vertex Pharmaceuticals Incorporated, priority 2005, dated 2014).

pEC50: −log10 of the molar value.

The target of the assay is T1, […]F508-CFTR (Homo sapiens, UniProt P13569, DEL508-508).
T1 construct: expressed in transfected cells
The assay is described as follows: Assay results of Table 3: ΔF508-CFTR modulation, membrane potential optical assay (assay format not stated). Format: cell-based. Conditions: NIH3T3 mouse fibroblasts stably expressing […]F508-CFTR (optical assays); for Efficacy: efficacy range; for pEC50: potency range. An excerpt: A. Membrane Potential Optical Methods for Assaying […]F508-CFTR Modulation Properties of Compounds
The optical membrane potential assay utilized voltage-sensitive FRET sensors described by Gonzalez and Tsien (See, Gonzalez, J. E. and R. Y. Tsien (1995) “Voltage sensing by fluorescence resonance energy transfer in single cells” Biophys J 69(4): 1272-80, and Gonzalez, J. E. and R. Y. Tsien (1997) “Improved indicators of cell membrane potential that use fluorescence resonance energy transfer” Chem Biol 4(4): 269-77) in combination with instrumentation for measuring fluorescence changes such as the Voltage/Ion Probe Reader (VIPR) (See, Gonzalez, J. E., K. Oades, et al. (1999) “Cell-based assays and instrumentation for screening ion-channel targets” Drug Discov Today 4(9): 431-439).
These voltage sensitive assays are based on the change in fluorescence resonant energy transfer (FRET) between the membrane-soluble, voltage-sensitive dye, DiSBAC2(3), and a fluorescent phospholipid, CC2-DMPE, which is attached to the outer leaflet of the plasma membrane and acts as a FRET donor. Changes in membrane potential (Vm) cause the negatively charged DiSBAC2(3) to redistribute across the plasma membrane and the amount of energy transfer from CC2-DMPE changes accordingly. The changes in fluorescence emission were monitored using VIPR™ II, which is an integrated liquid handler and fluorescent detector designed to conduct cell-based screens in 96- or 384-well microtiter plates.
To identify small molecules that correct the trafficking defect associated with ΔF508-CFTR; a single-addition HTS assay format was developed. The cells were incubated in serum-free medium for 16 hrs at 37° C. in the presence or absence (negative control) of test compound. As a positive control, cells plated in 384-well plates were incubated for 16 hrs at 27° C. to “temperature-correct” […]F508-CFTR. The cells were subsequently rinsed 3× with Krebs Ringers solution and loaded with the voltage-sensitive dyes. To activate […]F508-CFTR, 10 µM forskolin and the CFTR potentiator, genistein (20 µM), were added along with Cl^−-free medium to each well. The addition of Cl^−-free medium promoted Cl^− efflux in response to […]F508-CFTR activation and the resulting membrane depolarization was optically monitored using the FRET-based voltage-sensor dyes.
To identify potentiators of […]F508-CFTR, a double-addition HTS assay format was developed. During the first addition, a Cl^−-free medium with or without test compound was added to each well. After 22 sec, a second addition of Cl^−-free medium containing 2-10 µM forskolin was added to activate […]F508-CFTR. The extracellular Cl^− concentration following both additions was 28 mM, which promoted Cl^− efflux in response to […]F508-CFTR activation and the resulting membrane depolarization was optically monitored using the FRET-based voltage-sensor dyes.
Bath Solution #1: (in mM) NaCl 160, KCl 4.5, CaCl2 2, MgCl2 1, HEPES 10, pH 7.4 with NaOH.
Chloride-free bath solution: Chloride salts in Bath Solution #1 are substituted with gluconate salts.
CC2-DMPE: Prepared as a 10 mM stock solution in DMSO and stored at −20° C.
DiSBAC2(3): Prepared as a 10 mM stock in DMSO and stored at −20° C.
NIH3T3 mouse fibroblasts stably expressing […]F508-CFTR are used for optical measurements of membrane potential. The cells are maintained at 37° C. in 5% CO2 and 90% humidity in Dulbecco's modified Eagle's medium supplemented with 2 mM glutamine, 10% fetal bovine serum, 1× NEAA, […]-ME, 1× pen/strep, and 25 mM HEPES in 175 cm^2 culture flasks. For all optical assays, the cells were seeded at 30,000/well in 384-well matrigel-coated plates and cultured for 2 hrs at 37° C. before culturing at 27° C. for 24 hrs for the potentiator assay. For the correction assays, the cells are cultured at 27° C. or 37° C. with and without compounds for 16-24 hoursB.

T1 sequence (P13569 with tags, fused parts or gaps DEL508-508): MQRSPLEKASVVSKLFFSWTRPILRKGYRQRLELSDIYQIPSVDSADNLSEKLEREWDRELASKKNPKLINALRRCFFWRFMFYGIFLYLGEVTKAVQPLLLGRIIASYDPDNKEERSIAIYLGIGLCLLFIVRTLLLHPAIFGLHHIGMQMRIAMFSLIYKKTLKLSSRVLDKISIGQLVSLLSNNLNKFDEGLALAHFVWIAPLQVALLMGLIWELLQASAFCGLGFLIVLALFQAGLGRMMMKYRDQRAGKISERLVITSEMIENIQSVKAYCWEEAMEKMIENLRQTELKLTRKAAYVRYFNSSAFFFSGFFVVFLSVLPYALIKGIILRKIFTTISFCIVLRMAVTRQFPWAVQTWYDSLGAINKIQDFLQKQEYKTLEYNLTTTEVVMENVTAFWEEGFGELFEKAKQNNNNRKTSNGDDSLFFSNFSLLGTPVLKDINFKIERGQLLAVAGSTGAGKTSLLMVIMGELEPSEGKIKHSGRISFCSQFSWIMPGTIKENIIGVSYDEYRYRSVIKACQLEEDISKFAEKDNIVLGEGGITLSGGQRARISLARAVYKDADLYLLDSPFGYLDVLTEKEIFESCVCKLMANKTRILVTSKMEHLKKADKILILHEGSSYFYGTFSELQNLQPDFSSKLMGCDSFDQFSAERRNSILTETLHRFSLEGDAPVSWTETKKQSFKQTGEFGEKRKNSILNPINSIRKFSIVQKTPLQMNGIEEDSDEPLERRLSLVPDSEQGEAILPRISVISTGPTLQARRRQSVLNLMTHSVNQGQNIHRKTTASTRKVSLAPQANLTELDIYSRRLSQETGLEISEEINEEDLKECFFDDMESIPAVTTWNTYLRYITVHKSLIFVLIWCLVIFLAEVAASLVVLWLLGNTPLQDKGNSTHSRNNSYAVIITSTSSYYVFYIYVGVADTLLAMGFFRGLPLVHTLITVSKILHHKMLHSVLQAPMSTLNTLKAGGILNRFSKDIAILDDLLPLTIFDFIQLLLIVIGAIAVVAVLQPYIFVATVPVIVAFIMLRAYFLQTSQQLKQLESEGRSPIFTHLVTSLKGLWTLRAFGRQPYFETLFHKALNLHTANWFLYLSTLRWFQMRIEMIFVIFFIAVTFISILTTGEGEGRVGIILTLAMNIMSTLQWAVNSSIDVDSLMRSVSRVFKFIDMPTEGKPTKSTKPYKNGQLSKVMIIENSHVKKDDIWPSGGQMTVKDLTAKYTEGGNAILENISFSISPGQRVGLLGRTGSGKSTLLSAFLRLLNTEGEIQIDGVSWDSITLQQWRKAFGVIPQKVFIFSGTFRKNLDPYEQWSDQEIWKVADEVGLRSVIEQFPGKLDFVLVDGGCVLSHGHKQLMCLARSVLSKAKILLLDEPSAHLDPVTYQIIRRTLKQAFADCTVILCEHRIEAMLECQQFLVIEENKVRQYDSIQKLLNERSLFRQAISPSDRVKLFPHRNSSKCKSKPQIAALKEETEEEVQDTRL

On to `COc1ccc(C2(CNc3nc(C(N)=O)cc(-c4ccccc4)n3)CC2)cc1OC` [Compound 132], for which the Efficacy entry is “+++ (+++ corresponds to Efficacy greater than 100)” and the negative logarithm of the EC50 (pEC50) is less than 5.30.

For `NC(=O)c1cc(-c2ccc(Cl)c(Cl)c2)nc(N2CCCCC2)n1` [Compound 140], the Efficacy entry is “++ (++ corresponds to Efficacy between 100 and 50)”; the pEC50 is 5.30 to 6.00.

`COc1ccccc1-c1cc(C(N)=O)nc(N2CCCCC2)n1` [Compound 205]: the Efficacy entry was “++ (++ corresponds to Efficacy between 100 and 50)”; the pEC50 was less than 5.30.

In the case of `NC(=O)c1cc(-c2ccccc2)nc(N2CCC(CCO)CC2)n1` [Compound 181], the Efficacy entry was “++ (++ corresponds to Efficacy between 100 and 50)”; the pEC50 was less than 5.30.

Turning to `COc1ccc(S(=O)(=O)N2CCN(c3nc(C(N)=O)cc(-c4ccccc4)n3)CC2)cc1` [Compound 195], the Efficacy entry is “++ (++ corresponds to Efficacy between 100 and 50)”; the pEC50 was less than 5.30.

For the molecule `CC(C)(C)Nc1nc(C(N)=O)cc(-c2ccccc2)n1` [Compound 71], the Efficacy result is “++ (++ corresponds to Efficacy between 100 and 50)”; the pEC50 is less than 5.30.

As for `CNC(=O)c1cc(-c2ccccc2)nc(NC)n1` [Compound 103], the Efficacy entry is “+ (+ corresponds to Efficacy less than 50)” and the negative logarithm of the EC50 (pEC50) was more than 6.00.

As to `CCOC(=O)C1CCCN(c2nc(C(N)=O)cc(-c3ccccc3)n2)C1` (centres unmarked) [Compound 59], the Efficacy entry is “+ (+ corresponds to Efficacy less than 50)” and the negative-log EC50 (pEC50) is 5.30 to 6.00.

On to `COc1ccc(F)cc1-c1cc(C(N)=O)nc(N2CCCCC2)n1` [Compound 137], for which the Efficacy result is “++ (++ corresponds to Efficacy between 100 and 50)”; the pEC50 is 5.30 to 6.00.

For `Cc1cccc(-c2cc(C(N)=O)nc(N3CCCCC3)n2)c1C` [Compound 11], the Efficacy result is “++ (++ corresponds to Efficacy between 100 and 50)”; the pEC50 is 5.30 to 6.00.

For the molecule `CCN(CC)c1nc(C(N)=O)cc(-c2cc3ccccc3s2)n1` [Compound 81], the Efficacy entry is recorded as “+++ (+++ corresponds to Efficacy greater than 100)” and the pEC50 was 5.30 to 6.00.

On to `CCOc1cccc(-c2cc(C(N)=O)nc(N(CC)CC)n2)c1` [Compound 212], for which the Efficacy entry is reported as “+++ (+++ corresponds to Efficacy greater than 100)” and the pEC50 is more than 6.00.

For the molecule `CCN(CC)c1nc(C(N)=O)cc(-c2cccc(C(=O)OC)c2)n1` [Compound 35], the Efficacy entry is “+++ (+++ corresponds to Efficacy greater than 100)” and the pEC50 is more than 6.00.

Take `CCN(CC)c1nc(C(N)=O)cc(-c2cccc(OC(F)(F)F)c2)n1` [Compound 84]: the Efficacy result was “++ (++ corresponds to Efficacy between 100 and 50)”; the negative logarithm of the EC50 (pEC50) was more than 6.00.

`CCN(CC)c1nc(C(N)=O)cc(-c2ccccc2Oc2ccccc2)n1` [Compound 24]: the Efficacy entry was “++ (++ corresponds to Efficacy between 100 and 50)”; the negative-log EC50 (pEC50) is more than 6.00.

Turning to `CCN(CCO)c1nc(C(=O)NC)cc(-c2ccccc2)n1` [Compound 156], the Efficacy entry was “+ (+ corresponds to Efficacy less than 50)” and the negative-log EC50 (pEC50) is less than 5.30.

Take `CNC(=O)c1cc(-c2ccccc2)nc(N2CC=CCC2)n1` [Compound 153]: the Efficacy entry is “++ (++ corresponds to Efficacy between 100 and 50)”; the pEC50 was less than 5.30.

As to `CNC(=O)c1cc(-c2ccccc2)nc(N2CCCCCC2)n1` [Compound 36], the Efficacy result is on record as “+ (+ corresponds to Efficacy less than 50)” and the pEC50 is 5.30 to 6.00.

For the molecule `CNc1nc(C(N)=O)cc(-c2ccccc2)n1` [Compound 179], the Efficacy entry is “+ (+ corresponds to Efficacy less than 50)” and the pEC50 is less than 5.30.

On to `CN(Cc1ccccc1)c1nc(C(N)=O)cc(-c2ccccc2)n1` [Compound 164], for which the Efficacy entry is “++ (++ corresponds to Efficacy between 100 and 50)”; the pEC50 was 5.30 to 6.00.

For the molecule `NC(=O)c1cc(-c2ccccc2)nc(N2CCC(C(=O)c3ccc(Cl)cc3)CC2)n1` [Compound 28], the Efficacy result was “++ (++ corresponds to Efficacy between 100 and 50)”; the pEC50 is less than 5.30.

`CCN(CC)c1nc(C(N)=O)cc(-c2ccc(C(C)C)cc2)n1` [Compound 55]: the Efficacy result is “++ (++ corresponds to Efficacy between 100 and 50)”; the negative-log EC50 (pEC50) was more than 6.00.

In the case of `NC(=O)c1cc(-c2cc3ccccc3s2)nc(N2CCCCC2)n1` [Compound 170], the Efficacy result is recorded as “+ (+ corresponds to Efficacy less than 50)” and the negative logarithm of the EC50 (pEC50) is 5.30 to 6.00.

In the case of `NC(=O)c1cc(-c2ccccc2Oc2ccccc2)nc(N2CCCCC2)n1` [Compound 146], the Efficacy entry was “+++ (+++ corresponds to Efficacy greater than 100)” and the pEC50 was 5.30 to 6.00.

`CCOc1ccc(-c2cc(C(N)=O)nc(N3CCCCC3)n2)cc1` [Compound 198]: the Efficacy entry is “+ (+ corresponds to Efficacy less than 50)” and the negative-log EC50 (pEC50) is 5.30 to 6.00.

For `CCN(CC)c1nc(C(N)=O)cc(-c2cc(OC)ccc2OC)n1` [Compound 217], the Efficacy result is “++ (++ corresponds to Efficacy between 100 and 50)”; the pEC50 is more than 6.00.

Turning to `COc1ccc(C2(CNc3nc(C(N)=O)cc(-c4ccccc4)n3)CCCC2)cc1OC` [Compound 187], the Efficacy entry is “++ (++ corresponds to Efficacy between 100 and 50)”; the pEC50 was 5.30 to 6.00.

For `NC(=O)c1cc(-c2cccc(OC(F)(F)F)c2)nc(N2CCCCC2)n1` [Compound 213], the Efficacy result is reported as “+ (+ corresponds to Efficacy less than 50)” and the negative logarithm of the EC50 (pEC50) was 5.30 to 6.00.

In the case of `NC(=O)c1cc(-c2cc(Cl)cc(Cl)c2)nc(N2CCCCC2)n1` [Compound 199], the Efficacy result was “++ (++ corresponds to Efficacy between 100 and 50)”; the pEC50 was 5.30 to 6.00.

Turning to `CCN(CC)c1nc(C(N)=O)cc(-c2cccc(F)c2)n1` [Compound 160], the Efficacy entry was “++ (++ corresponds to Efficacy between 100 and 50)”; the pEC50 is less than 5.30.

Turning to `NC(=O)c1cc(-c2ccccc2)nc(NCc2ccco2)n1` [Compound 216], the Efficacy result is “++ (++ corresponds to Efficacy between 100 and 50)”; the negative-log EC50 (pEC50) was less than 5.30.

Turning to `CCN(CC)c1nc(C(N)=O)cc(-c2cc(Cl)ccc2Cl)n1` [Compound 225], the Efficacy entry is reported as “+++ (+++ corresponds to Efficacy greater than 100)” and the pEC50 was more than 6.00.

Take `Cc1cccc(-c2cc(C(N)=O)nc(N3CCCCC3)n2)c1` [Compound 32]: the Efficacy entry was “++ (++ corresponds to Efficacy between 100 and 50)”; the pEC50 is less than 5.30.

For the molecule `CN(C)C(=O)c1cc(-c2ccccc2)nc(N2CCCCCC2)n1` [Compound 1], the Efficacy result was “++ (++ corresponds to Efficacy between 100 and 50)”; the pEC50 is less than 5.30.

Regarding `COc1ccc(-c2cc(C(N)=O)nc(N(C)C)n2)cc1` [Compound 31], the Efficacy entry is on record as “+ (+ corresponds to Efficacy less than 50)” and the pEC50 is less than 5.30.

With `Cc1cc(-c2cc(C(N)=O)nc(N3CCCCC3)n2)ccc1F` [Compound 175], the Efficacy entry was “++ (++ corresponds to Efficacy between 100 and 50)”; the pEC50 was less than 5.30.

As to `CN(Cc1ccco1)c1nc(C(N)=O)cc(-c2ccccc2)n1` [Compound 162], the Efficacy entry is “++ (++ corresponds to Efficacy between 100 and 50)”; the pEC50 was 5.30 to 6.00.
